Source: the supplement of paper PMC10307832

Assays:
Assay in all cases: relative viability (nuclei count vs DMSO), 5 days (fraction); higher = more cells survive
[1] = compound: CC1=CC=C(C=C1)C(=O)CN2C3=C(CCCC3)SC2=N [Pifithrin_alpha] + Cc1nc(NC(=O)N2CCC[C@H]2C(N)=O)sc1-c1ccnc(C(C)(C)C(F)(F)F)c1 [Alpelisib] (partner 2 µM)
How it was run: (§1)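 Relative viability is defined as nuclei in treated wells over nuclei in vehicle wells. Duplicate plates were run and medians reported. Lung cancer cell lines in 1536-well plates were dosed by pin tool one day after seeding, with one drug or with a fixed anchor-drug dose plus five library-drug doses (not always all listed) in √10 steps, and nuclei were counted after 5 days.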

[2] = compound: CNC(=O)c1ccccc1Sc1ccc2c(/C=C/c3ccccn3)n[nH]c2c1 [Axitinib] + CC(=O)Nc1cccc(-n2c(=O)n(C3CC3)c(=O)c3c(Nc4ccc(I)cc4F)n(C)c(=O)c(C)c32)c1 [Trametinib] (partner 0.02 µM)
How it was run: as §1

[3] = compound: CNC(=O)c1ccccc1Sc1ccc2c(/C=C/c3ccccn3)n[nH]c2c1 [Axitinib] + O=C(c1cc(Cc2n[nH]c(=O)c3ccccc23)ccc1F)N1CCN(C(=O)C2CC2)CC1 [Olaparib] (partner 8 µM)
How it was run: as §1

[4] = compound: Nc1nc(Nc2ccc3c(c2)CC[C@@H](N2CCCC2)CC3)nn1-c1cc2c(nn1)-c1ccccc1CCC2 [Bemcentinib] + CS(=O)(=O)CCNCc1ccc(-c2ccc3ncnc(Nc4ccc(OCc5cccc(F)c5)c(Cl)c4)c3c2)o1 [Lapatinib] (partner 2 µM)
How it was run: as §1

Cell Line | relative viability ([1]; first compound 1 µM) | relative viability ([1]; first compound 3.162 µM) | relative viability ([1]; first compound 10 µM) | relative viability ([1]; first compound 31.62 µM) | relative viability ([1]; first compound 100 µM) | relative viability ([2]; first compound 0.005 µM) | relative viability ([2]; first compound 0.01581 µM) | relative viability ([2]; first compound 0.05 µM) | relative viability ([2]; first compound 0.1581 µM) | relative viability ([2]; first compound 0.5 µM) | relative viability ([3]; first compound 0.005 µM) | relative viability ([3]; first compound 0.01581 µM) | relative viability ([3]; first compound 0.05 µM) | relative viability ([3]; first compound 0.1581 µM) | relative viability ([3]; first compound 0.5 µM) | relative viability ([4]; first compound 0.04 µM) | relative viability ([4]; first compound 0.1265 µM) | relative viability ([4]; first compound 0.4 µM) | relative viability ([4]; first compound 1.265 µM) | relative viability ([4]; first compound 4 µM)
LOU-NH91 | 0.63 | 0.637 | 0.635 | 0.616 | 0.583 | 0.778 | 0.732 | 0.807 | 0.766 | 0.818 | 0.942 | 0.745 | 0.951 | 0.893 | 0.934 | 0.714 | 0.79 | 0.789 | 0.742 | 0.756
LU99A | 0.503 | 0.576 | 0.543 | – | 0.646 | 0.547 | 0.463 | 0.534 | 0.541 | 0.511 | 0.272 | 0.287 | 0.273 | 0.286 | 0.304 | 0.961 | 1.26 | 1.15 | 0.961 | 0.893
NCI-H441 | 0.942 | 0.859 | 0.673 | 0.708 | 0.85 | 0.521 | 0.404 | 0.331 | 0.485 | 0.567 | 0.675 | 0.499 | 0.539 | 0.503 | 0.453 | – | – | – | – | –
NCI-H522 | – | – | – | – | – | 0.87 | 0.752 | 0.853 | 0.633 | 0.81 | 0.61 | 0.639 | 0.641 | 0.562 | 0.748 | – | – | – | – | –
NCI-H1299 | 1.1 | 1.09 | 1.07 | 0.874 | 1.18 | – | – | – | – | – | 0.983 | 0.944 | 0.976 | 0.983 | 0.975 | 0.991 | 0.995 | 0.962 | 0.938 | 0.978
NCI-H1563 | 0.967 | 0.919 | 0.936 | 0.922 | 0.82 | – | – | – | – | – | – | – | – | – | – | 0.907 | 0.887 | 1.04 | 0.976 | 0.958
NCI-H1648 | – | – | – | – | – | 0.622 | 0.553 | 0.335 | 0.525 | 0.509 | 0.616 | 0.975 | 0.554 | 0.979 | 0.958 | – | – | – | – | –
NCI-H1650 | – | – | – | – | – | 0.613 | 0.469 | 0.682 | 0.648 | 0.749 | 0.876 | 0.712 | 0.797 | 0.91 | 0.89 | 0.7 | 0.817 | 0.74 | 0.921 | 0.79
NCI-H1703 | 0.317 | 0.306 | 0.252 | 0.366 | 0.377 | – | – | – | – | – | 0.392 | 0.225 | 0.243 | 0.216 | 0.201 | – | 1.18 | 1.24 | 1.17 | 1.13
NCI-H2342 | – | – | – | – | – | 0.789 | 0.751 | 0.703 | 0.881 | 0.794 | 0.51 | 0.464 | 0.421 | 0.528 | 0.44 | – | – | – | – | –
SW 900 | – | – | – | – | – | 0.915 | – | 0.926 | 0.687 | 0.943 | 1.02 | – | 1.07 | 0.892 | 0.927 | – | – | – | – | –
